Assay results from patent publication US5605892A, “Compositions of arginine amide with cyclodextrin of caffeine, and methods of use” (priority 1993, dated 1997).

Legend:
[1] = Solubility test of argatroban in water with various compounds (shaken with excess argatroban, HPLC); format: physicochemical; details: for solubility thermodynamic at 12 h: phosphate buffer, pH 7, aqueous buffer, phosphate buffer pH 7.0, 25° C.
Experimental: The solubility of argatroban in water was determined by the use of various compounds.
An excess amount of argatroban was added to a phosphate buffer (pH 7.0) containing a compound at a concentration of 1.0 W/V % and the mixture was shaken at 25° C. for 12 hours. The amount of the argatroban dissolved in this solution was measured by HPLC to determine the solubility.

[2] = Stability test: aqueous solutions in glass ampoules preserved in shade or under light exposure; format: physicochemical; details: argatroban with caffeine
Source text: Aqueous solutions (pH 7) containing 0.05 W/V % or 0.1 W/V % argatroban and having the formulations 1-6 shown in Table 2 below were filled in glass ampoules and preserved in shade or under light exposure of […]. Each solution was examined for pH, appearance, insoluble matter and residual content of argatroban.

[3] = system: fibrin formation in anterior sac; assay: Inhibition of fibrin formation in anterior sac after argon laser irradiation of iris, slit lamp evaluation; format: in vivo, colored house rabbits
Source text: Reference Example--Argatroban concentration and inhibition of fibrin formation in anterior sac
Animal used: 18 colored house rabbits weighing 2 kg and showing no abnormality in the eyes by visual observation
Drug used: test drug (a solution of argatroban at a concentration of 0.1 W/V % or 0.2 W/V % prepared according to the eye drop of Example 1)
: control (physiological saline)
Test: Fibrin was formed in anterior sac by irradiation at four sites in iris with argon laser (AC-3500, Nidek). The irradiation was conducted at a spot size of 100 μm, time 0.2 sec and output 1 watt. The fibrin in anterior sac was evaluated according to the evaluation criteria given below for the visual observation with time with a slit lamp after the irradiation up to 3 hours thereafter.
The test drug argatroban was administered 7 times by installation of 50 μl of the drug to one of the eyes every 10 minutes beginning from 30 minutes before the laser irradiation to 30 minutes after the irradiation, and physiological saline was administered to the other eye.
Slit lamp observation: The presence of fibrin at the 4 sites irradiated with laser was graded (0 or 1). When the fibrin amount was great, the grade was doubled. The fibrin in pupil region was graded in five stages of from 0 to 4 points. The full mark was; irradiation site: 4 points×2+pupil region: 4 points=12 points.

[4] = Solubility of argatroban in water (background statement); format: physicochemical; details: 25° C., pH range 7.2-7.8
Experimental: (§1) Taking one of the aforementioned arginine amides, (2R,4R)4-methyl-1-[N^2 -((RS)-3-methyl-1,2,3,4-tetrahydro-8-quinolinesulfonyl)-L-arginyl]-2-piperidinecarboxylic acid monohydrate (generally called argatroban) as an example, it is used at a concentration of 1 mg/ml or above as an eye drop or entoptic perfusate for the above-mentioned purpose.

[5] = Stability of aqueous solution of argatroban in a brown bottle (background statement); format: physicochemical
Experimental: as §1

[6] = Eye irritation examination; format: in vivo, house rabbits
Source text: Eye irritation caused by the respective, aforementioned solutions of α-cyclodextrin, β-cyclodextrin, γ-cyclodextrin and caffeine was examined using house rabbits.

[7] = system: fibrin formation; details: administration for a few weeks after the operation, cited from earlier work
[8] = solutions of Example 1, compound at 1.0 W/V %

Which solubility thermodynamic at 12 h ([1]; argatroban with caffeine 1.0 W/V %) does the source give for `CC1CNc2c(cccc2S(=O)(=O)N[C@@H](CCCNC(=N)N)C(=O)N2CC[C@@H](C)C[C@@H]2C(=O)O)C1.O` (mixture of isomers) [argatroban, (2R,4R)4-methyl-1-[N^2-((RS)-3-methyl-1,2,3,4-tetrahydro-8-quinolinesulfonyl)-L-arginyl]-2-piperidinecarboxylic acid monohydrate] here?
Its solubility thermodynamic at 12 h is 2000 µg/mL.

What about the solubility thermodynamic at 12 h ([1]; argatroban with α-cyclodextrin 1.0 W/V %) of the same compound?
The solubility thermodynamic at 12 h was 1340 µg/mL.

And the solubility thermodynamic at 12 h ([1]; argatroban with β-cyclodextrin 1.0 W/V %)?
Its solubility thermodynamic at 12 h is 2590 µg/mL.

What about the solubility thermodynamic at 12 h ([1]; argatroban with γ-cyclodextrin 1.0 W/V %) of the same compound?
The solubility thermodynamic at 12 h was 1320 µg/mL.

And the solubility thermodynamic at 12 h ([1]; argatroban, no compound added)?
The solubility thermodynamic at 12 h was 930 µg/mL.

What about the “solubility of argatroban relative to that obtained when no compound was added” value ([1]; with caffeine 1.0 W/V %) of the same compound?
Its value is “about twice”.

What about the improvement in solubility ([1]; with α-, β-, γ-cyclodextrin and caffeine) of the same compound?
The improvement in solubility was “superior improvement in solubility”.

And the “solubility of argatroban relative to that obtained when no compound was added” value ([1]; with β-cyclodextrin 1.0 W/V %)?
The value was “about thrice”.

And the stability against light [2]?
The stability against light was “improved by caffeine”.

And the “percent inhibition of fibrin formation” value ([3]; 0.1 W/V % argatroban, 50 μl instilled 7 times every 10 minutes)?
The value was “about 50%”.

What about the “inhibition of fibrin formation at every measurement point” value ([3]; 0.1 W/V % argatroban, up to 3 hours after laser irradiation) of the same compound?
The value was “significantly inhibited”.

What about the “inhibition of fibrin formation” value ([3]; 0.2 W/V % argatroban, 50 μl instilled 7 times every 10 minutes) of the same compound?
The value was “completely inhibited”.

What about the solubility [4] of the same compound?
Its solubility is ~900 µg/mL.

What about the “preservation stability of aqueous solution” value [5] of the same compound?
The value was “can be preserved stably in a brown bottle”.

Which Eye irritation [6, 8] does the source give for `Cn1c(=O)c2c(ncn2C)n(C)c1=O` [caffeine] here?
Its Eye irritation is “no specific problems, thus showing no harmful effect on the eye tissue”.

Which “effect after entoptic operation” value [7] does the source give for `COc1ccc2c(c1)c(CC(=O)O)c(C)n2C(=O)c1ccc(Cl)cc1` [indomethacin] here?
The value was “has not shown dependable effects”.

And the “adverse effects after entoptic operation” value ([7]; though not often)?
The value was “delay in healing of wounds or disorders in cornea”.

With `OC[C@H]1O[C@@H]2O[C@H]3[C@H](O)[C@@H](O)[C@@H](O[C@H]4[C@H](O)[C@@H](O)[C@@H](O[C@H]5[C@H](O)[C@@H](O)[C@@H](O[C@H]6[C@H](O)[C@@H](O)[C@@H](O[C@H]7[C@H](O)[C@@H](O)[C@@H](O[C@H]1[C@H](O)[C@H]2O)O[C@@H]7CO)O[C@@H]6CO)O[C@@H]5CO)O[C@@H]4CO)O[C@@H]3CO` [α-cyclodextrin] as the compound, how does the Eye irritation ([6]; rabbit, in vivo) read?
Its Eye irritation is “no specific problems, thus showing no harmful effect on the eye tissue”.

Which Eye irritation ([6]; rabbit, in vivo) does the source give for `OC[C@H]1O[C@@H]2O[C@H]3[C@H](O)[C@@H](O)[C@@H](O[C@H]4[C@H](O)[C@@H](O)[C@@H](O[C@H]5[C@H](O)[C@@H](O)[C@@H](O[C@H]6[C@H](O)[C@@H](O)[C@@H](O[C@H]7[C@H](O)[C@@H](O)[C@@H](O[C@H]8[C@H](O)[C@@H](O)[C@@H](O[C@H]1[C@H](O)[C@H]2O)O[C@@H]8CO)O[C@@H]7CO)O[C@@H]6CO)O[C@@H]5CO)O[C@@H]4CO)O[C@@H]3CO` [β-cyclodextrin] here?
The Eye irritation was “no specific problems, thus showing no harmful effect on the eye tissue”.

Which Eye irritation [6, 8] does the source give for `OC[C@H]1O[C@@H]2O[C@H]3[C@H](O)[C@@H](O)[C@@H](O[C@H]4[C@H](O)[C@@H](O)[C@@H](O[C@H]5[C@H](O)[C@@H](O)[C@@H](O[C@H]6[C@H](O)[C@@H](O)[C@@H](O[C@H]7[C@H](O)[C@@H](O)[C@@H](O[C@H]8[C@H](O)[C@@H](O)[C@@H](O[C@H]9[C@H](O)[C@@H](O)[C@@H](O[C@H]1[C@H](O)[C@H]2O)O[C@@H]9CO)O[C@@H]8CO)O[C@@H]7CO)O[C@@H]6CO)O[C@@H]5CO)O[C@@H]4CO)O[C@@H]3CO` [γ-cyclodextrin] here?
The Eye irritation was “no specific problems, thus showing no harmful effect on the eye tissue”.
